pEC50: −log10 of the molar value. Read-outs that look alike come from different tables or passages of the source. *1 amine or outer side, *2 acyl side, *3 side chain or, on linkers, in order; H or OH if unused. Where a SMILES comes first, the peptide text is derived from it. Side-chain parts run from the residue outwards. The star is where a group is joined. C20 diacid = O=C(O)CCCCCCCCCCCCCCCCCCC(=O)*; C18 diacid = O=C(O)CCCCCCCCCCCCCCCCC(=O)*; γGlu = O=C(O)[C@H](CCC(=O)[*:2])N[*:1]; Trx = NC[C@H]1CC[C@H](C(=O)O)CC1; AEEA = NCCOCCOCC(=O)O
Assays:
[1] = Mini-pig PK assay (plasma half-life); settings: Göttingen, minipig, iv
In short: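 Catheterised mini-pigs received compound i.v. at 10 nmol/kg in pH 4.0 phosphate/NaCl/tween vehicle, or alternatively i.v. or s.c. at 1–30 nmol/kg in pH 8.0 K2HPO4/tween. Stabilised plasma was sampled up to 13 days and assayed by LC-MS (LLOQ 2 nM). Half-life came from non-compartmental analysis of individual animal profiles.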

Y4 receptor = molecular target: T1, Y4 receptor (Homo sapiens, UniProt P50391); assay: Y4 receptor ACTOne based FLIPR assay (cAMP biosensor); assay type: cell-based
T1 construct: host or cells: ACTOne HEK-293 cells
T1 sequence (P50391 whole entry): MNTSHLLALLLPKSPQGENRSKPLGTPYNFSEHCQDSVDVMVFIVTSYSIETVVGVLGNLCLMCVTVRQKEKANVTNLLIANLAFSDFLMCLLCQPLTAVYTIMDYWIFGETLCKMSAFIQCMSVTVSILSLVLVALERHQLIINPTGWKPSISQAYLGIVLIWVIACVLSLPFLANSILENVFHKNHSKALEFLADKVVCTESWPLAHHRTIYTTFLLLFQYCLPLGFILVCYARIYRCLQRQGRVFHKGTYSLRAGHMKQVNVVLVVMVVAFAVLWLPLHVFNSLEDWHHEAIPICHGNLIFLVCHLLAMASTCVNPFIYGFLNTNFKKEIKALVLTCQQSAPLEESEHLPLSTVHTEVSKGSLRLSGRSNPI
Excerpt: ACTOne™ is an easily scaleable cAMP biosensor HTS platform for measurement of Gs and Gi coupled 7™ receptor signalling from BD Biosciences (San Jose, Calif.). The cells express a biosensor developed around a modified rat olfactory cyclic nucleotide gated (CNG) calcium channel—a fairly non-discriminatory ion channel that responds to cAMP and cGMP. The CNG has been engineered to be cAMP selective and thus function as a cAMP responsive biosensor that signals through calcium or membrane potential responsive dyes. Y2 or Y4 receptor expressing ACTOne HEK-293 cells are obtained from BD Biosciences. The cells are loaded with a calcium responsive dye that only distributes in the cytoplasm. Probenecid, an inhibitor of the organic anion transporter is added to prevent the dye from leaving the cell. A phosphodiesterase inhibitor is added to prevent formatted cAMP from being degraded. Isoproterenol (an β1/β2 agonist) is added to activate the adenylate cyclase. When an Y2 or Y4 receptor agonist is added, the adenylate cyclase is inactivated. The decreased calcium concentration in the cytoplasm is then detected as an increase in fluorescence. Together with the test substance, Isoproterenol at a concentration matching EC80, is added to all wells. • The cells are plated out in Greiner 384-well plates. […] The plates are covered with tinfoil to avoid light (the dye can be excited by the daylight, which results in higher baseline and variation). • The FLIPR (FLIPRtetra from Molecular Devices, CA, USA) adds 1 μl sample and 1 μl isoproterenol (0.05 μM final concentration) at the same time. • The fluorescence signal from the wells is measured 330 seconds after sample addition on the FLIPR.

Y2 receptor = molecular target: T2, Y2 receptor (Homo sapiens, UniProt P49146); assay: Y2 receptor ACTOne based FLIPR assay (cAMP biosensor); assay type: cell-based
T2 construct: host or cells: ACTOne HEK-293 cells
T2 sequence (P49146 1-381): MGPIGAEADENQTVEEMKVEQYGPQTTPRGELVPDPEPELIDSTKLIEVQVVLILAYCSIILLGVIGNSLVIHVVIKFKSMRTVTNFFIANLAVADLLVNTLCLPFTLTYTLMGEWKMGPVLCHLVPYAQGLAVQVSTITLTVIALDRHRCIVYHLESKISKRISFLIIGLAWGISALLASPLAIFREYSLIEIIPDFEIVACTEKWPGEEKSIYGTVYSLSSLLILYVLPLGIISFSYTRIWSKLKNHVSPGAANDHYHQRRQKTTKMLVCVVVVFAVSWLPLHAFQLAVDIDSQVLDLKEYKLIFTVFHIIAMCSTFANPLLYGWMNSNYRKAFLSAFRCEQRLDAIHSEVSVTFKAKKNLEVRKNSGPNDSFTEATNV

[2] = Table 2, PP analogues, ACTOne HEK-293 cells, read-out: Y4 cAMP EC50
[3] = Table 2, PP analogues, ACTOne HEK-293 cells, read-out: Y2 cAMP EC50

half-life ([1]; 7 nmol/kg) [h]	pEC50 (Y4 receptor; [2])	pEC50 (Y2 receptor; [3])	half-life ([1]; 10 nmol/kg) [h]	SMILES	half-life ([1]; in vivo, 4 nmol/kg) [h]	pEC50 (Y4 receptor)	pEC50 (Y2 receptor)	half-life ([1]; in vivo, 1 nmol/kg) [h]	half-life ([1]; in vivo, 30 nmol/kg) [h]
				CC[C@H](C)[C@H](NC(=O)[C@H](Cc1ccc(O)cc1)NC(=O)[C@H](CCCCNC(=O)COCCOCCNC(=O)COCCOCCNC(=O)CC[C@H](NC(=O)[C@H]1CC[C@H](CNC(=O)CCCCCCCCCCCCCCCCCCC(=O)O)CC1)C(=O)O)NC(=O)[C@H](CCCNC(=N)N)NC(=O)[C@H](CC(C)C)NC(=O)[C@H](CC(=O)O)NC(=O)[C@H](C)NC(=O)[C@H](C)NC(=O)[C@H](Cc1ccc(O)cc1)NC(=O)[C@H](CCC(N)=O)NC(=O)[C@H](C)NC(=O)[C@H](CC(C)C)NC(=O)[C@H](CCC(N)=O)NC(=O)[C@H](CCC(=O)O)NC(=O)[C@@H]1CCCN1C(=O)[C@@H](NC(=O)[C@H](C)NC(=O)[C@H](CC(N)=O)NC(=O)[C@H](CC(=O)O)NC(=O)CNC(=O)[C@@H]1CCCN1C(=O)[C@H](Cc1ccc(O)cc1)NC(=O)[C@@H](NC(=O)[C@@H]1CCCN1C(=O)[C@H](CCC(=O)O)NC(=O)[C@H](CC(C)C)NC(=O)[C@@H]1CCCN1)C(C)C)[C@@H](C)O)C(=O)N[C@@H](CC(N)=O)C(=O)N[C@@H](CC(C)C)C(=O)N[C@@H](CC(C)C)C(=O)N[C@H](C(=O)N[C@@H](CCCNC(=N)N)C(=O)N1CCC[C@H]1C(=O)N[C@@H](CCCNC(=N)N)C(=O)N[C@@H](Cc1ccc(O)cc1)C(N)=O)[C@@H](C)O [SEQ ID NO: 45, N-epsilon26-[2-(2-{2-[2-(2-{2-[(S)-4-Carboxy-4-({trans-4-[(19-carboxynonadecanoylamino)methyl]cyclohexanecarbonyl}amino)butyrylamino]-ethoxy}ethoxy)acetylamino]ethoxy}ethoxy)acetyl][Leu17,Lys26,Leu30]hPP2-36] (H-PLEPVYPGDNATPEQLAQYAADLRK([AEEA-AEEA-γGlu-Trx-C20 diacid])YINLLTRPRY-NH2; N-terminus and C-terminus assumed)	58	8.15	< 6.00		
29	9.00	< 6.00		CC[C@H](C)[C@H](NC(=O)[C@H](Cc1ccc(O)cc1)NC(=O)[C@H](CCCNC(=N)N)NC(=O)[C@H](CCCNC(=N)N)NC(=O)[C@H](CC(C)C)NC(=O)[C@H](CC(=O)O)NC(=O)[C@H](C)NC(=O)[C@H](C)NC(=O)[C@H](Cc1ccc(O)cc1)NC(=O)[C@H](CCC(N)=O)NC(=O)[C@H](C)NC(=O)[C@H](CC(C)C)NC(=O)[C@H](CCC(N)=O)NC(=O)[C@H](CCC(=O)O)NC(=O)[C@@H]1CCCN1C(=O)[C@@H](NC(=O)[C@H](C)NC(=O)[C@H](CC(N)=O)NC(=O)[C@H](CC(=O)O)NC(=O)CNC(=O)[C@@H]1CCCN1C(=O)[C@H](Cc1ccc(O)cc1)NC(=O)[C@@H](NC(=O)[C@@H]1CCCN1C(=O)[C@H](CCC(=O)O)NC(=O)[C@H](CC(C)C)NC(=O)[C@@H]1CCCN1C(=O)COCCOCCNC(=O)COCCOCCNC(=O)CC[C@H](NC(=O)CCCCCCCCCCCCCCCCC(=O)O)C(=O)O)C(C)C)[C@@H](C)O)C(=O)N[C@@H](CC(N)=O)C(=O)N[C@@H](CC(C)C)C(=O)N[C@@H](CC(C)C)C(=O)N[C@H](C(=O)N[C@@H](CCCNC(=N)N)C(=O)N1CCC[C@H]1C(=O)N[C@@H](CCCNC(=N)N)C(=O)N[C@@H](Cc1ccc(O)cc1)C(N)=O)[C@@H](C)O [SEQ ID NO: 55, N-alfa-[2-(2-{2-[2-(2-{2-[(S)-4-Carboxy-4-(17-carboxyheptadecanoylamino)butyrylamino]ethoxy}ethoxy)acetylamino]-ethoxy}ethoxy)acetyl][Leu17,Leu30]hPP2-36] ({C18 diacid-γGlu-AEEA-AEEA}-PLEPVYPGDNATPEQLAQYAADLRRYINLLTRPRY-NH2; C-terminus assumed)					
	< 6.00	< 6.00	82	CC[C@H](C)[C@H](NC(=O)[C@H](Cc1ccc(O)cc1)NC(=O)[C@H](CCCNC(=N)N)NC(=O)[C@H](CCCCNC(=O)COCCOCCNC(=O)COCCOCCNC(=O)CC[C@H](NC(=O)[C@H]1CC[C@H](CNC(=O)CCCCCCCCCCCCCCCCCCC(=O)O)CC1)C(=O)O)NC(=O)[C@H](CC(C)C)NC(=O)[C@H](CC(=O)O)NC(=O)[C@H](C)NC(=O)[C@H](C)NC(=O)[C@H](Cc1ccc(O)cc1)NC(=O)[C@H](CCC(N)=O)NC(=O)[C@H](C)NC(=O)[C@H](CC(C)C)NC(=O)[C@H](CCC(N)=O)NC(=O)[C@H](CCC(=O)O)NC(=O)[C@@H]1CCCN1C(=O)[C@@H](NC(=O)[C@H](C)NC(=O)[C@H](CC(N)=O)NC(=O)[C@H](CC(=O)O)NC(=O)CNC(=O)[C@@H]1CCCN1C(=O)[C@H](Cc1ccc(O)cc1)NC(=O)[C@@H](NC(=O)[C@@H]1CCCN1C(=O)[C@H](CCC(=O)O)NC(=O)[C@H](CC(C)C)NC(=O)[C@@H]1CCCN1)C(C)C)[C@@H](C)O)C(=O)N[C@@H](CC(N)=O)C(=O)N[C@@H](CC(C)C)C(=O)N[C@@H](CC(C)C)C(=O)N[C@H](C(=O)N[C@@H](CCCNC(=N)N)C(=O)N1CCC[C@H]1C(=O)N[C@@H](CCCNC(=N)N)C(=O)N[C@@H](Cc1ccc(O)cc1)C(N)=O)[C@@H](C)O [SEQ ID NO: 50, N-epsilon25-[2-(2-{2-[2-(2-{2-[(S)-4-Carboxy-4-({trans-4-[(19-carboxynonadecanoylamino)methyl]cyclohexanecarbonyl}amino)butyrylamino]-ethoxy}ethoxy)acetylamino]ethoxy}ethoxy)acetyl][Leu17,Lys25,Leu30]hPP2-36] (H-PLEPVYPGDNATPEQLAQYAADLK([AEEA-AEEA-γGlu-Trx-C20 diacid])RYINLLTRPRY-NH2)					
				CC[C@H](C)[C@H](NC(=O)[C@H](Cc1ccc(O)cc1)NC(=O)[C@H](CCCNC(=N)N)NC(=O)[C@H](CCCNC(=N)N)NC(=O)[C@H](CC(C)C)NC(=O)[C@H](CC(=O)O)NC(=O)[C@H](C)NC(=O)[C@H](C)NC(=O)[C@H](Cc1ccc(O)cc1)NC(=O)[C@H](CCC(N)=O)NC(=O)[C@H](C)NC(=O)[C@H](CC(C)C)NC(=O)[C@H](CCC(N)=O)NC(=O)[C@H](CCC(=O)O)NC(=O)[C@@H]1CCCN1C(=O)[C@@H](NC(=O)[C@H](C)NC(=O)[C@H](CCCCNC(=O)COCCOCCNC(=O)COCCOCCNC(=O)CC[C@H](NC(=O)[C@H]1CC[C@H](CNC(=O)CCCCCCCCCCCCCCCCCCC(=O)O)CC1)C(=O)O)NC(=O)[C@H](CC(=O)O)NC(=O)CNC(=O)[C@@H]1CCCN1C(=O)[C@H](Cc1ccc(O)cc1)NC(=O)[C@@H](NC(=O)[C@@H]1CCCN1C(=O)[C@H](CCC(=O)O)NC(=O)[C@H](CC(C)C)NC(=O)[C@@H]1CCCN1)C(C)C)[C@@H](C)O)C(=O)N[C@@H](CC(N)=O)C(=O)N[C@@H](CC(C)C)C(=O)N[C@@H](CC(C)C)C(=O)N[C@H](C(=O)N[C@@H](CCCNC(=N)N)C(=O)N1CCC[C@H]1C(=O)N[C@@H](CCCNC(=N)N)C(=O)N[C@@H](Cc1ccc(O)cc1)C(N)=O)[C@@H](C)O [SEQ ID NO: 29, N-epsilon11-[2-(2-{2-[2-(2-{2-[(S)-4-Carboxy-4-({trans-4-[(19-carboxynonadecanoylamino)methyl]cyclohexanecarbonyl}amino)butyrylamino]-ethoxy}ethoxy)acetylamino]ethoxy}ethoxy)acetyl][Lys11,Leu17,Leu30]hPP2-36] (H-PLEPVYPGDK([AEEA-AEEA-γGlu-Trx-C20 diacid])ATPEQLAQYAADLRRYINLLTRPRY-NH2; N-terminus and C-terminus assumed)		8.70	< 6.00	23	27
